From patent publication US20170107229A1, “SUBSTITUTED TETRAHYDROPYRIDOTHIENOPYRIMIDINES” (BAYER PHARMA AKTIENGESELLSCHAFT, priority 2014, published 2017)

What follows are compounds tested against T1, human full-length MKNK1 (Homo sapiens, UniProt Q9BUB5, T385D) (assay: MKNK1 kinase high ATP assay (TR-FRET)). Details: high ATP (2 mM final), 15 min preincubation with enzyme, GST-MKNK1 (T344D).
T1 construct: GST (N); purchased Carna Biosciences 02-145; host or cells: insect cells (baculovirus expression system)
T1 sequence (Q9BUB5 1-424 isoform Q9BUB5-2 T344D): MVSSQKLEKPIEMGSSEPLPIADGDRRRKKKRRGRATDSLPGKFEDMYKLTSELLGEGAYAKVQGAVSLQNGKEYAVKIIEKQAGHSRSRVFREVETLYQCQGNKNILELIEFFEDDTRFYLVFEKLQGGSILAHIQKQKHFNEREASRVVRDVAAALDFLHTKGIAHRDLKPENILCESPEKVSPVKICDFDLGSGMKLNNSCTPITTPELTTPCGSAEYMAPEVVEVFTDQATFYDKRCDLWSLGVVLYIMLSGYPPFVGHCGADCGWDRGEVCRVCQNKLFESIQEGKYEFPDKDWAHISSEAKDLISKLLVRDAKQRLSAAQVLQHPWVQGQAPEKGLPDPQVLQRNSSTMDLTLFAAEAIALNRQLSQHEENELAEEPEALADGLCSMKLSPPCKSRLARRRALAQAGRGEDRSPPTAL
Assay type: biochemical
Method in brief: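 GST-tagged human full-length MKNK1 (T344D), insect-cell expressed, preincubated 15 min at 22 °C with compound, then reacted 30 min at 22 °C with 2 mM ATP and 0.06 μM biotinylated peptide (final) in HEPES pH 7.5. Phospho-peptide detected by TR-FRET (665/620 nm ratio) after EDTA stop; normalised to no-inhibitor and no-enzyme controls.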
For `CN1CCC(C(=O)N2CCc3c(sc4ncnc(Nc5ccn6nccc6c5)c34)C2)CC1` [Example 79, (1-Methylpiperidin-4-yl)[4-(pyrazolo[1,5-a]pyridin-5-ylamino)-5,8-dihydropyrido[4′,3′:4,5]thieno[2,3-d]pyrimidin-7(6H)-yl]methanone], the IC50 was 188 nM.
Compound `COc1cc2[nH]ncc2cc1Nc1ncnc2sc3c(c12)CCN(Cc1ncon1)C3` [Example 80, N-(6-Methoxy-1H-indazol-5-yl)-7-(1,2,4-oxadiazol-3-ylmethyl)-5,6,7,8-tetrahydropyrido[4′,3′:4,5]thieno[2,3-d]pyrimidin-4-amine] has an IC50 of 17 nM.
Compound `COc1cc2[nH]ncc2cc1Nc1ncnc2sc3c(c12)CCN(C(=O)c1cocn1)C3` [Example 81, {4-[(6-Methoxy-1H-indazol-5-yl)amino]-5,8-dihydropyrido[4′,3′:4,5]thieno[2,3-d]pyrimidin-7(6H)-yl}(1,3-oxazol-4-yl)methanone] has an IC50 of 5 nM.
`COc1cc2[nH]ncc2cc1NCCN(C)C(=O)N1CCc2c(sc3ncnc(Nc4cc5cn[nH]c5cc4OC)c23)C1` [Example 82, 4-[(6-Methoxy-1H-indazol-5-yl)amino]-N-{2-[(6-methoxy-1H-indazol-5-yl)amino]ethyl}-N-methyl-5,8-dihydropyrido[4′,3′:4,5]thieno[2,3-d]pyrimidine-7(6H)-carboxamide] was tested, and the IC50 was 48 nM.
`COc1cc2[nH]ncc2cc1Nc1ncnc2sc3c(c12)CCN(CCCN1CCNC1=O)C3` [Example 83, 1-(3-{4-[(6-Methoxy-1H-indazol-5-yl)amino]-5,8-dihydropyrido[4′,3′:4,5]thieno[2,3-d]pyrimidin-7(6H)-yl}propyl)imidazolidin-2-one] showed an IC50 of 15 nM.
`COc1cc2[nH]ncc2cc1Nc1ncnc2sc3c(c12)CCN(CCCn1cccc1)C3` [Example 84, N-(6-Methoxy-1H-indazol-5-yl)-7-[3-(1H-pyrrol-1-yl)propyl]-5,6,7,8-tetrahydropyrido[4′,3′:4,5]thieno[2,3-d]pyrimidin-4-amine] showed an IC50 of 8 nM.
For `COc1cc2[nH]ncc2cc1Nc1ncnc2sc3c(c12)CCN(CCN1CCCC1=O)C3` [Example 85, 1-(2-{4-[(6-Methoxy-1H-indazol-5-yl)amino]-5,8-dihydropyrido[4′,3′:4,5]thieno[2,3-d]pyrimidin-7(6H)-yl}ethyl)pyrrolidin-2-one], the IC50 was 10 nM.
`COc1cc2[nH]ncc2cc1Nc1ncnc2sc3c(c12)CCN(CCCN1CCCC1=O)C3` [Example 86, 1-(3-{4-[(6-Methoxy-1H-indazol-5-yl)amino]-5,8-dihydropyrido[4′,3′:4,5]thieno[2,3-d]pyrimidin-7(6H)-yl}propyl)pyrrolidin-2-one] gave an IC50 of 12 nM.
In the case of `COc1cc2[nH]ncc2cc1Nc1ncnc2sc3c(c12)CCN(CCCN1CCOCC1=O)C3` [Example 87, 4-(3-{4-[(6-Methoxy-1H-indazol-5-yl)amino]-5,8-dihydropyrido[4′,3′:4,5]thieno[2,3-d]pyrimidin-7(6H)-yl}propyl)morpholin-3-one], the IC50 is reported as 16 nM.
`COc1cc2[nH]ncc2cc1Nc1ncnc2sc3c(c12)CCN(Cc1cc(C(=O)N(C)C)no1)C3` [Example 88, 5-({4-[(6-Methoxy-1H-indazol-5-yl)amino]-5,8-dihydropyrido[4′,3′:4,5]thieno[2,3-d]pyrimidin-7(6H)-yl}methyl)-N,N-dimethyl-1,2-oxazole-3-carboxamide] was tested, and the IC50 was 9 nM.
Compound `COc1cc2[nH]ncc2cc1Nc1ncnc2sc3c(c12)CCN(CCCN1C[C@@H](C)O[C@@H](C)C1)C3` [Example 89, 7-{3-[(2R,6S)-2,6-Dimethylmorpholin-4-yl]propyl}-N-(6-methoxy-1H-indazol-5-yl)-5,6,7,8-tetrahydropyrido[4′,3′:4,5]thieno[2,3-d]pyrimidin-4-amine] has an IC50 of 3 nM.
In the case of `COc1cc2[nH]ncc2cc1Nc1ncnc2sc3c(c12)CCN(CCCN1CCOCC1)C3` [Example 90, N-(6-Methoxy-1H-indazol-5-yl)-7-[3-(morpholin-4-yl)propyl]-5,6,7,8-tetrahydropyrido[4′,3′:4,5]thieno[2,3-d]pyrimidin-4-amine], the IC50 is reported as 4 nM.
Compound `COc1cc2[nH]ncc2cc1Nc1ncnc2sc3c(c12)CCN(C(=O)C1CCCC1)C3` [Example 91, Cyclopentyl{4-[(6-methoxy-1H-indazol-5-yl)amino]-5,8-dihydropyrido[4′,3′:4,5]thieno[2,3-d]pyrimidin-7(6H)-yl}methanone] has an IC50 of 3 nM.
With `COc1cc2[nH]ncc2cc1Nc1ncnc2sc3c(c12)CCN(C(=O)C1CCCCC1)C3` [Example 92, Cyclohexyl{4-[(6-methoxy-1H-indazol-5-yl)amino]-5,8-dihydropyrido[4′,3′:4,5]thieno[2,3-d]pyrimidin-7(6H)-yl}methanone] the IC50 was 3 nM.
Work on `COc1cc2[nH]ncc2cc1Nc1ncnc2sc3c(c12)CCN(C(=O)N1[C@H](C)COC[C@H]1C)C3` [Example 93, [(3R,5R)-3,5-Dimethylmorpholin-4-yl]{4-[(6-methoxy-1H-indazol-5-yl)amino]-5,8-dihydropyrido[4′,3′:4,5]thieno[2,3-d]pyrimidin-7(6H)-yl}methanone] yielded an IC50 of 4 nM.
Compound `COc1cc2[nH]ncc2cc1Nc1ncnc2sc3c(c12)CCN(C(=O)N1C[C@H](C)O[C@@H](C)C1)C3` [Example 94, [(2S,6S)-2,6-Dimethylmorpholin-4-yl]{4-[(6-methoxy-1H-indazol-5-yl)amino]-5,8-dihydropyrido[4′,3′:4,5]thieno[2,3-d]pyrimidin-7(6H)-yl}methanone] has an IC50 of 3 nM.
With `COc1cc2[nH]ncc2cc1Nc1ncnc2sc3c(c12)CCN(C(=O)N1C[C@@H](C)O[C@H](C)C1)C3` [Example 95, [(2R,6R)-2,6-Dimethylmorpholin-4-yl]{4-[(6-methoxy-1H-indazol-5-yl)amino]-5,8-dihydropyrido[4′,3′:4,5]thieno[2,3-d]pyrimidin-7(6H)-yl}methanone] the IC50 was 3 nM.
`COc1cc2[nH]ncc2cc1Nc1ncnc2sc3c(c12)CCN(C(=O)N1CCOC[C@H]1C)C3` [Example 96, {4-[(6-Methoxy-1H-indazol-5-yl)amino]-5,8-dihydropyrido[4′,3′:4,5]thieno[2,3-d]pyrimidin-7(6H)-yl}[(3R)-3-methylmorpholin-4-yl]methanone] showed an IC50 of 3 nM.
With `COc1cc2[nH]ncc2cc1Nc1ncnc2sc3c(c12)CCN(C(=O)N1CCOC[C@@H]1C)C3` [Example 97, {4-[(6-Methoxy-1H-indazol-5-yl)amino]-5,8-dihydropyrido[4′,3′:4,5]thieno[2,3-d]pyrimidin-7(6H)-yl}[(3S)-3-methylmorpholin-4-yl]methanone] the IC50 was 3 nM.
In the case of `COc1cc2[nH]ncc2cc1Nc1ncnc2sc3c(c12)CCN(Cc1ccn(C)n1)C3` [Example 98, N-(6-Methoxy-1H-indazol-5-yl)-7-[(1-methyl-1H-pyrazol-3-yl)methyl]-5,6,7,8-tetrahydropyrido[4′,3′:4,5]thieno[2,3-d]pyrimidin-4-amine], the IC50 is reported as 11 nM.
`COc1cc2[nH]ncc2cc1Nc1ncnc2sc3c(c12)CCN(C(=O)N(C)CCC(F)(F)F)C3` [Example 99, 4-[(6-Methoxy-1H-indazol-5-yl)amino]-N-methyl-N-(3,3,3-trifluoropropyl)-5,8-dihydropyrido[4′,3′:4,5]thieno[2,3-d]pyrimidine-7(6H)-carboxamide] was tested, and the IC50 was 2 nM.
Compound `COc1cc2[nH]ncc2cc1Nc1ncnc2sc3c(c12)CCN(C(=O)NCCC(F)(F)F)C3` [Example 100, 4-[(6-Methoxy-1H-indazol-5-yl)amino]-N-(3,3,3-trifluoropropyl)-5,8-dihydropyrido[4′,3′:4,5]thieno[2,3-d]pyrimidine-7(6H)-carboxamide] has an IC50 of 1 nM.
In the case of `COc1cc2[nH]ncc2cc1Nc1ncnc2sc3c(c12)CCN(C(=O)N1[C@@H](C)COC[C@@H]1C)C3` [Example 101, [(3S,5S)-3,5-Dimethylmorpholin-4-yl]{4-[(6-methoxy-1H-indazol-5-yl)amino]-5,8-dihydropyrido[4′,3′:4,5]thieno[2,3-d]pyrimidin-7(6H)-yl}methanone], the IC50 is reported as 9 nM.
Work on `COc1cc2[nH]ncc2cc1Nc1ncnc2sc3c(c12)CCN(C(=O)c1ccno1)C3` [Example 102, {4-[(6-Methoxy-1H-indazol-5-yl)amino]-5,8-dihydropyrido[4′,3′:4,5]thieno[2,3-d]pyrimidin-7(6H)-yl}(1,2-oxazol-5-yl)methanone] yielded an IC50 of 5 nM.
`COc1cc2[nH]ncc2cc1Nc1ncnc2sc3c(c12)CCN(C(=O)c1ccn(C)n1)C3` [Example 103, {4-[(6-Methoxy-1H-indazol-5-yl)amino]-5,8-dihydropyrido[4′,3′:4,5]thieno[2,3-d]pyrimidin-7(6H)-yl}(1-methyl-1H-pyrazol-3-yl)methanone] gave an IC50 of 11 nM.
